Measured values published in patent publication US10316039B2, “P2X3 and/or P2X2/3 compounds and methods” (Asana Biosciences, LLC, priority 2013, dated 2019).

Target: T1, P2X3 (UniProt P56373)
T1 sequence (P56373 1-397): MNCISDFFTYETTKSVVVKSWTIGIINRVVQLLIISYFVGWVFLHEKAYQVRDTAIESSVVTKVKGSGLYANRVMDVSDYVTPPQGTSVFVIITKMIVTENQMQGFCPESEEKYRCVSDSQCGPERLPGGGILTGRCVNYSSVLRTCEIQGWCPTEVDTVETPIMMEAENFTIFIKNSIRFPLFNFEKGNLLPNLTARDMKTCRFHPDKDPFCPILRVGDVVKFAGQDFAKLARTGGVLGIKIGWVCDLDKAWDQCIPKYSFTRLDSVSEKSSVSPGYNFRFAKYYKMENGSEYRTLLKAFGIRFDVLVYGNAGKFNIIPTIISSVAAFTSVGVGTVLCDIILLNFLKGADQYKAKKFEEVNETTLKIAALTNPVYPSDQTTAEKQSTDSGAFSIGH
Test: P2X3 FLIPR intracellular calcium assay
Format: cell-based
Details: agonist at EC75, species (human or rat) not given
Method in brief: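 Human P2X3-HEK, human P2X2/3-TRex293, rat P2X2/3-TRex293 or rat P2X3 TRex-CHO cells loaded with Calcium 4 dye (1.8 mM probenecid, pH 7.4).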

SMILES	IC50 [µM]
C[C@H](NC(=O)c1cc(-n2nncc2C(F)F)c2ncc(-c3ccc(Cl)s3)n2c1)c1nnc[nH]1 [Example 38]	0.001 to 0.1
CC[C@H](NC(=O)c1cc(-n2nncc2C(F)F)c2ncc(-c3ccc(C)s3)n2c1)c1nnc[nH]1 [Example 52]	0.001 to 0.1
CCc1cnnn1-c1cc(C(=O)NCc2ccc(C)nc2)cn2c(-c3ccc(C)s3)cnc12 [Example 22]	0.001 to 0.1
